According to ChEMBL document CHEMBL1201862, “PubChem BioAssay data set” (2004):
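Briefly, cells in 96-well plates were exposed to five compound concentrations for 48 h, and endpoints were estimated by linear interpolation. GI50: concentration for 50% inhibition of growth.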 The source made the active and inactive calls. Rule as the data show it: active = GI50 up to about 1.1 µM and inactive = higher.

Key:
Assay in all cases: DTP human tumour cell line panel, 48 h
ACHN = tested on: ACHN
A549 = tested on: A549
HT-29 = tested on: HT-29
HL-60 = tested on: HL-60
SN12C = tested on: SN12C
PC-3 = tested on: PC-3
M14 = tested on: M14
SNB-75 = tested on: SNB-75
OVCAR-5 = tested on: OVCAR-5
MOLT-4 = tested on: MOLT-4
A498 = tested on: A498
TK-10 = tested on: TK-10
Malme-3M = tested on: Malme-3M
NCI-H522 = tested on: NCI-H522
CAKI-1 = tested on: CAKI-1
SF-268 = tested on: SF-268
HCT-15 = tested on: HCT-15
NCI-H226 = tested on: NCI-H226
EKVX = tested on: EKVX
SK-MEL-28 = tested on: SK-MEL-28

SMILES | GI50 (ACHN) | GI50 (A549) | GI50 (HT-29) | GI50 (HL-60) | GI50 (SN12C) | GI50 (PC-3) | GI50 (M14) | GI50 (SNB-75) | GI50 (OVCAR-5) | GI50 (MOLT-4) | GI50 (A498) | GI50 (TK-10) | GI50 (Malme-3M) | GI50 (NCI-H522) | GI50 (CAKI-1) | GI50 (SF-268) | GI50 (HCT-15) | GI50 (NCI-H226) | GI50 (EKVX) | GI50 (SK-MEL-28)
Nc1ccc(Cc2ccc(/N=C\c3ccc(OCc4cccc(COc5ccc(/C=N\c6ccc(Cc7ccc(N)cc7)cc6)cc5)n4)cc3)cc2)cc1 | > 100 µM (inactive) | > 100 µM (inactive) | > 100 µM (inactive) | > 100 µM (inactive) | > 100 µM (inactive) | > 100 µM (inactive) | > 100 µM (inactive) | 13.2 µM (inactive) | > 100 µM (inactive) | > 100 µM (inactive) | 61.5 µM (inactive) | 81.3 µM (inactive) | 63.1 µM (inactive) | > 100 µM (inactive) | > 100 µM (inactive) | 45.2 µM (inactive) | > 100 µM | > 100 µM (inactive) | 94.6 µM (inactive) | > 100 µM (inactive)
c1ccc(-c2cs[s+]c2)cc1 | > 100 µM (inactive) | > 100 µM (inactive) | > 100 µM (inactive) | 41.9 µM (inactive) | > 100 µM (inactive) | > 100 µM (inactive) | > 100 µM (inactive) | > 100 µM (inactive) | > 100 µM (inactive) | 26.5 µM (inactive) | > 100 µM (inactive) | > 100 µM (inactive) | > 100 µM (inactive) | 46.2 µM (inactive) | > 100 µM (inactive) | > 100 µM (inactive) | 40.8 µM | > 100 µM (inactive) | > 100 µM (inactive) | > 100 µM (inactive)
CCCCCC/C=C\CCCCCCCCCc1cccc(OC)c1O | > 100 µM (inactive) | > 100 µM (inactive) | > 100 µM (inactive) | > 100 µM (inactive) | > 100 µM (inactive) | 63.8 µM (inactive) | > 100 µM (inactive) | > 100 µM (inactive) | > 100 µM (inactive) | > 100 µM (inactive) | 41.2 µM (inactive) | > 100 µM (inactive) | > 100 µM (inactive) | 47.1 µM (inactive) | > 100 µM (inactive) | > 100 µM (inactive) | > 100 µM | > 100 µM (inactive) | > 100 µM (inactive) | > 100 µM (inactive)
[O-][n+]1onc(-c2ccccc2)c1-c1no[n+]([O-])c1-c1c(-c2ccccc2)no[n+]1[O-] | 4.81 µM (inactive) | 23.1 µM (inactive) | 3.62 µM (inactive) | 2.43 µM (inactive) | 7.67 µM (inactive) | 2.47 µM (inactive) | 12.1 µM (inactive) | 2.52 µM (inactive) | 18.6 µM (inactive) | 3.56 µM (inactive) | 13.9 µM (inactive) | 44.5 µM (inactive) | 20.4 µM (inactive) | 18.8 µM (inactive) | 12.8 µM (inactive) | 12.6 µM (inactive) |  | 15.2 µM (inactive) | 37.2 µM (inactive) | 33.7 µM (inactive)
COc1cc(O)c(/C=N/N=C(\N)NO)c(OC)c1 | 9.14 µM (inactive) | > 10 µM (inactive) | 6.31 µM (inactive) | > 10 µM (inactive) | > 10 µM (inactive) | 6.18 µM (inactive) | > 10 µM (inactive) | 1.56 µM (inactive) | > 10 µM (inactive) |  | > 10 µM (inactive) | > 10 µM (inactive) | > 10 µM (inactive) | > 10 µM (inactive) | > 10 µM (inactive) | > 10 µM (inactive) | 5.04 µM | 5.11 µM (inactive) | > 10 µM (inactive) | > 10 µM (inactive)
CC(=O)O[C@H]1CC[C@@]2(C)C(=CC[C@@H]3[C@@H]2CC[C@]2(C)c4nc(N)c(C#N)cc4C[C@@H]32)C1 | 26.4 µM (inactive) | 25.9 µM (inactive) | 9.82 µM (inactive) | 12.2 µM (inactive) | 36.9 µM (inactive) | 42.5 µM (inactive) | > 87.5 µM (inactive) | 7.96 µM (inactive) | > 85.3 µM (inactive) | 11.7 µM (inactive) | > 67.6 µM (inactive) | 27.2 µM (inactive) | 41.5 µM (inactive) | 12.6 µM (inactive) | > 100 µM (inactive) | 60.5 µM (inactive) | 2.94 µM | > 100 µM (inactive) | 27.9 µM (inactive) | 40 µM (inactive)
COc1ccc(N2C(=O)/C(=C/c3ccc(N(CCC#N)CCC#N)cc3C)N=C2c2cc([N+](=O)[O-])ccc2Cl)cc1 | 22.6 µM (inactive) | 4.89 µM (inactive) | 4.07 µM (inactive) | 3.62 µM (inactive) | 6.31 µM (inactive) | 4.7 µM (inactive) | 4.67 µM (inactive) | 3.3 µM (inactive) | 25.4 µM (inactive) | 4.73 µM (inactive) | 5.41 µM (inactive) | 21.6 µM (inactive) | 27 µM (inactive) | 2.74 µM (inactive) | 7 µM (inactive) | 11 µM (inactive) | 3.84 µM | 17 µM (inactive) | 14.5 µM (inactive) | 11 µM (inactive)
COC(=O)c1c(C)cccc1C1CN=NC12Cc1c(C)cccc1C2=O (configuration not stated) | 79.3 µM (inactive) | 82.6 µM (inactive) | 90.2 µM (inactive) | 34.9 µM (inactive) | > 100 µM (inactive) | 37.2 µM (inactive) | 83.2 µM (inactive) | 64.1 µM (inactive) | > 100 µM (inactive) | 37.4 µM (inactive) | 37.8 µM (inactive) | > 100 µM (inactive) | 91.4 µM (inactive) | 24.9 µM (inactive) | > 100 µM (inactive) | > 100 µM (inactive) | 88.1 µM | > 100 µM (inactive) | 24.8 µM (inactive) | > 100 µM (inactive)
COc1ccc(Cc2nc3cc(C(F)(F)F)ccc3n2C[C@@H]2CCCN3CCCCC23)cc1 (some centres not stated) | 6.75 µM (inactive) | 9.02 µM (inactive) | 5.06 µM (inactive) | 4.81 µM (inactive) | 7.31 µM (inactive) | 10.6 µM (inactive) | 2.72 µM (inactive) | 27.4 µM (inactive) | 13.7 µM (inactive) | 6.84 µM (inactive) | 4.4 µM (inactive) | 9.1 µM (inactive) | 3.18 µM (inactive) | 7 µM (inactive) | 12.6 µM (inactive) |  | 14.2 µM | 18.1 µM (inactive) | 13.6 µM (inactive) | 13 µM (inactive)
CCOS(=O)(=O)c1ccc(-c2c3nc(c(-c4ccc(S(=O)(=O)OCC)cc4)c4ccc([nH]4)c(-c4ccc(S(=O)(=O)OCC)cc4)c4nc(c(-c5ccc(S(=O)(=O)OCC)cc5)c5ccc2[nH]5)C=C4)C=C3)cc1 | > 31.6 µM (inactive) | > 31.6 µM (inactive) | > 100 µM (inactive) | > 31.6 µM (inactive) | > 31.6 µM (inactive) | > 31.6 µM (inactive) | > 31.6 µM (inactive) | > 10 µM (inactive) | > 31.6 µM (inactive) | > 31.6 µM (inactive) | > 31.6 µM (inactive) | > 31.6 µM (inactive) | 17.7 µM (inactive) | 10.5 µM (inactive) | > 31.6 µM (inactive) | > 31.6 µM (inactive) | > 31.6 µM | 18.3 µM (inactive) | > 31.6 µM (inactive) | > 10 µM (inactive)
Cc1c2ccncc2cc2c1sc1ccncc12 | 1.06 µM (active) | 0.845 µM (active) | 2.73 µM (inactive) | 0.877 µM (active) | 2 µM (inactive) | 1.86 µM (inactive) | 4.53 µM (inactive) | 3.8 µM (inactive) | 3.18 µM (inactive) | 0.468 µM (active) | 4.31 µM (inactive) | 7.29 µM (inactive) | 4.16 µM (inactive) | 2.14 µM (inactive) | 2.01 µM (inactive) | 3.66 µM (inactive) | 1.9 µM | 0.684 µM (active) | 3.17 µM (inactive) | 5.82 µM (inactive)
COc1cc2cc(C(=O)N3C[C@H](CCl)c4c3cc(O)c3ccccc43)[nH]c2c(OC)c1OC | 0.0393 µM (active) | 0.252 µM (active) | 0.185 µM (active) | < 0.01 µM (active) | 0.0133 µM (active) | 0.267 µM (active) | 0.159 µM (active) | 0.184 µM (active) | 0.264 µM (active) | 0.0381 µM (active) | 0.248 µM (active) | 0.277 µM (active) | 0.152 µM (active) | 0.108 µM (active) | 0.789 µM (active) | 0.117 µM (active) | 0.192 µM | 0.12 µM (active) | 0.31 µM (active) | 0.267 µM (active)
CNC(=O)N(CCC#N)CCN(C(=O)N(C)C)c1ccccc1 | > 100 µM (inactive) | > 100 µM (inactive) | > 100 µM (inactive) | > 100 µM (inactive) | > 100 µM (inactive) | > 100 µM (inactive) | > 100 µM (inactive) | > 100 µM (inactive) | > 100 µM (inactive) | > 100 µM (inactive) | > 100 µM (inactive) | > 100 µM (inactive) | > 100 µM (inactive) | > 100 µM (inactive) | > 100 µM (inactive) | > 100 µM (inactive) | > 100 µM | > 100 µM (inactive) | > 100 µM (inactive) | > 100 µM (inactive)
COc1cc2c3c(n(C)c(=O)c2cc1OC)-c1cc2c(cc1C3=O)OCO2 | 1.01 µM (active) | 55.1 µM (inactive) | 46.5 µM (inactive) | 22 µM (inactive) | 38.6 µM (inactive) | > 70 µM (inactive) | 9.91 µM (inactive) | 3.73 µM (inactive) | 54 µM (inactive) | 0.44 µM (active) | 46.2 µM (inactive) | > 100 µM (inactive) | 67.5 µM (inactive) | 1.46 µM (inactive) | 4.98 µM (inactive) | 10.7 µM (inactive) | > 96.2 µM | > 72.8 µM (inactive) | 35.3 µM (inactive) | > 66.1 µM (inactive)
